Laboratory results: patent US8247211B2, “Glycopeptide antibiotics” (American Cyanamid Company, priority 2001, dated 2012)
≈ marks a conversion by molar mass, not a printed value. Blank lines part the entries; values can stand above or below the compound they belong to.

Legend:
Test in all cases: In vitro antibacterial evaluation: minimum inhibitory concentration (MIC), broth dilution method
Type in all cases: cell-based
Escherichia coli = conditions: 5×10^5 CFU/mL, 18 hours at 35° C.
Method: (§1) The minimum inhibitory concentration (MIC), the lowest concentration of the antibiotic which inhibits growth of the test organism, is determined by the broth dilution method using Muller-Hinton II […] (Baltimore Biological Laboratories) following the recommendations of the National Committee for Clinical Laboratory Standards [Methods for dilution antimicrobial susceptibility tests for bacteria that grow aerobically, approved standard M7-A2, National Committee for Clinical Laboratory Standards, Villanova, Pa].
(§2) An inoculum level of 5×10^5 CFU/mL, and a range of antibiotic concentrations (64-0.06 μg/mL) is used. […] The test organisms include a spectrum of Gram-positive bacteria comprised of Staphylococcus sp., Streptococcus sp. and Enterococcus sp. These organisms include recent clinical isolates that are resistant to methicillin, penicillin and/or vancomycin.

Enterococcus sp. = conditions: broth dilution, 5×10^5 CFU/mL, 18 hours at 35° C.
Method: as §1, §2

Staphylococcus sp. = conditions: for MIC Staphylococcus aureus (ATCC 29213): strain ATCC 29213; for MIC Staphylococcus aureus (GC 1131): strain GC 1131; for MIC Staphylococcus aureus (GC 3051): strain GC 3051; for MIC Staphylococcus aureus (GC 3053): strain GC 3053; for MIC Staphylococcus aureus (GC 4541): strain GC 4541; for MIC Staphylococcus aureus (GC 4542): strain GC 4542; for MIC Staphylococcus aureus-SMITH (GC 4543): strain GC 4543; for MIC Staphylococcus aureus (GC 4544): strain GC 4544; for MIC Staphylococcus aureus (GC 4545): strain GC 4545; for MIC Staphylococcus haemolyticus (GC 4546): strain GC 4546; for MIC Coagulase Negative Staphylococcus (GC 4547): strain GC 4547; for MIC Coagulase Negative Staphylococcus (GC 4548): strain GC 4548; for MIC Coagulase Negative Staphylococcus (GC 4549): strain GC 4549; for MIC Coagulase Negative Staphylococcus (GC 4551): strain GC 4551; for MIC Coagulase Negative Staphylococcus (GC 6257): strain GC 6257
Method: as §1, §2

Streptococcus sp. = conditions: broth dilution, 5×10^5 CFU/mL, 18 hours at 35° C.
Method: as §1, §2

[1] = broth dilution, 18 hours at 35° C.

MIC Escherichia coli (ATCC 25922) (Escherichia coli): 32 µg/mL (≈ 22.8 µM) | MIC Escherichia coli (GC 4559) (Escherichia coli): 32 µg/mL (≈ 22.8 µM) | MIC Escherichia coli (GC 4560) (Escherichia coli): 2 µg/mL (≈ 1.43 µM) | MIC Enterococccus avium (GC 4558) (Enterococcus sp.): 2 µg/mL (≈ 1.43 µM) | MIC Enterococccus faecalis (ATCC 29212) (Enterococcus sp.): 2 µg/mL (≈ 1.43 µM) | MIC Enterococccus faecalis (GC 2691) (Enterococcus sp.): 2 µg/mL (≈ 1.43 µM) | MIC Enterococccus faecalis (GC 3059) (Enterococcus sp.): 2 µg/mL (≈ 1.43 µM) | MIC Enterococccus faecalis (GC 4552) (Enterococcus sp.): 2 µg/mL (≈ 1.43 µM) | MIC Enterococccus faecalis (GC 4553) (Enterococcus sp.): 4 µg/mL (≈ 2.85 µM) | MIC Enterococccus faecalis (GC 4554) (Enterococcus sp.): 2 µg/mL (≈ 1.43 µM) | MIC Enterococccus faecalis (GC 6189) (Enterococcus sp.): 2 µg/mL (≈ 1.43 µM) | MIC Enterococccus faecium (GC 2243) (Enterococcus sp.): 2 µg/mL (≈ 1.43 µM) | MIC Enterococccus faecium (GC 4556) (Enterococcus sp.): 2 µg/mL (≈ 1.43 µM) | MIC Enterococccus faecium (GC 4557) (Enterococcus sp.): 4 µg/mL (≈ 2.85 µM) | MIC Enterococcus faecalis (GC 2242) (Enterococcus sp.): 2 µg/mL (≈ 1.43 µM) | MIC Staphylococcus aureus (ATCC 29213) (Staphylococcus sp.): 2 µg/mL (≈ 1.43 µM) | MIC Staphylococcus aureus (ATCC 29213) (Staphylococcus sp.; [1]): 2 µg/mL (≈ 1.43 µM) | MIC Staphylococcus aureus (GC 1131) (Staphylococcus sp.): 2 µg/mL (≈ 1.43 µM) | MIC Staphylococcus aureus (GC 1131) (Staphylococcus sp.; [1]): 2 µg/mL (≈ 1.43 µM) | MIC Staphylococcus aureus (GC 3051) (Staphylococcus sp.): 2 µg/mL (≈ 1.43 µM) | MIC Staphylococcus aureus (GC 3051) (Staphylococcus sp.; [1]): 2 µg/mL (≈ 1.43 µM) | MIC Staphylococcus aureus (GC 3053) (Staphylococcus sp.): 2 µg/mL (≈ 1.43 µM) | MIC Staphylococcus aureus (GC 3053) (Staphylococcus sp.; [1]): 2 µg/mL (≈ 1.43 µM) | MIC Staphylococcus aureus (GC 4541) (Staphylococcus sp.): 2 µg/mL (≈ 1.43 µM) | MIC Staphylococcus aureus (GC 4541) (Staphylococcus sp.; [1]): 2 µg/mL (≈ 1.43 µM) | MIC Staphylococcus aureus (GC 4542) (Staphylococcus sp.): 2 µg/mL (≈ 1.43 µM) | MIC Staphylococcus aureus (GC 4542) (Staphylococcus sp.; [1]): 2 µg/mL (≈ 1.43 µM) | MIC Staphylococcus aureus-SMITH (GC 4543) (Staphylococcus sp.; 18 hours at 35° C.): 2 µg/mL (≈ 1.43 µM) | MIC Staphylococcus aureus-SMITH (GC 4543) (Staphylococcus sp.; [1]): 2 µg/mL (≈ 1.43 µM) | MIC Staphylococcus aureus (GC 4544) (Staphylococcus sp.): 1 µg/mL (≈ 0.713 µM) | MIC Staphylococcus aureus (GC 4544) (Staphylococcus sp.; [1]): 1 µg/mL (≈ 0.713 µM) | MIC Staphylococcus aureus (GC 4545) (Staphylococcus sp.): 2 µg/mL (≈ 1.43 µM) | MIC Staphylococcus aureus (GC 4545) (Staphylococcus sp.; [1]): 2 µg/mL (≈ 1.43 µM) | MIC Coagulase Negative Staphylococcus (GC 4547) (Staphylococcus sp.): 2 µg/mL (≈ 1.43 µM) | MIC Coagulase Negative Staphylococcus (GC 4547) (Staphylococcus sp.; [1]): 2 µg/mL (≈ 1.43 µM) | MIC Coagulase Negative Staphylococcus (GC 4548) (Staphylococcus sp.): 1 µg/mL (≈ 0.713 µM) | MIC Coagulase Negative Staphylococcus (GC 4548) (Staphylococcus sp.; [1]): 1 µg/mL (≈ 0.713 µM) | MIC Coagulase Negative Staphylococcus (GC 4549) (Staphylococcus sp.): 1 µg/mL (≈ 0.713 µM) | MIC Coagulase Negative Staphylococcus (GC 4549) (Staphylococcus sp.; [1]): 1 µg/mL (≈ 0.713 µM) | MIC Coagulase Negative Staphylococcus (GC 4551) (Staphylococcus sp.): 2 µg/mL (≈ 1.43 µM) | MIC Coagulase Negative Staphylococcus (GC 4551) (Staphylococcus sp.; [1]): 2 µg/mL (≈ 1.43 µM) | MIC Coagulase Negative Staphylococcus (GC 6257) (Staphylococcus sp.): 1 µg/mL (≈ 0.713 µM) | MIC Coagulase Negative Staphylococcus (GC 6257) (Staphylococcus sp.; [1]): 1 µg/mL (≈ 0.713 µM) | MIC Streptococcus agalactiae (GC 4564) (Streptococcus sp.): 0.12 µg/mL (≈ 0.0855 µM) | MIC Streptococcus pneumoniae (GC 1894) (Streptococcus sp.): <0.06 µg/mL | MIC Streptococcus pneumoniae (GC 4565) (Streptococcus sp.): 0.12 µg/mL (≈ 0.0855 µM) | MIC Streptococcus pneumonine (ATCC 6301) (Streptococcus sp.): <0.06 µg/mL | MIC Streptococcus pyogenes (GC 4563) (Streptococcus sp.): <0.06 µg/mL
SMILES: CC(c1ccccc1)C1NC(=O)CNC(=O)C(CO)NC(=O)C(C(O)C2CNC(=N)N2C2OC(CO)C(O)C(O)C2O)NC(=O)C(C(O)C2CNC(=N)N2)NC(=O)C(Cc2ccc(OC3OC(CO)C(OC4OC5COC(CC6CCCCC6)OC5C(O)C4O)C(O)C3O)cc2)NC1=O (stereo not shown) [Example 122]
MIC Staphylococcus haemolyticus (GC 4546) (Staphylococcus sp.): 2 µg/mL (≈ 1.43 µM) | MIC Staphylococcus haemolyticus (GC 4546) (Staphylococcus sp.; [1]): 2 µg/mL (≈ 1.43 µM)

MIC Escherichia coli (ATCC 25922) (Escherichia coli): >64 µg/mL | MIC Escherichia coli (GC 4559) (Escherichia coli): >64 µg/mL | MIC Escherichia coli (GC 4560) (Escherichia coli): 8 µg/mL (≈ 5.76 µM) | MIC Enterococccus avium (GC 4558) (Enterococcus sp.): 16 µg/mL (≈ 11.5 µM) | MIC Enterococccus faecalis (ATCC 29212) (Enterococcus sp.): 8 µg/mL (≈ 5.76 µM) | MIC Enterococccus faecalis (GC 2691) (Enterococcus sp.): 16 µg/mL (≈ 11.5 µM) | MIC Enterococccus faecalis (GC 3059) (Enterococcus sp.): 16 µg/mL (≈ 11.5 µM) | MIC Enterococccus faecalis (GC 4552) (Enterococcus sp.): 8 µg/mL (≈ 5.76 µM) | MIC Enterococccus faecalis (GC 4553) (Enterococcus sp.): 16 µg/mL (≈ 11.5 µM) | MIC Enterococccus faecalis (GC 4554) (Enterococcus sp.): 16 µg/mL (≈ 11.5 µM) | MIC Enterococccus faecalis (GC 6189) (Enterococcus sp.): 8 µg/mL (≈ 5.76 µM) | MIC Enterococccus faecium (GC 2243) (Enterococcus sp.): 8 µg/mL (≈ 5.76 µM) | MIC Enterococccus faecium (GC 4556) (Enterococcus sp.): 8 µg/mL (≈ 5.76 µM) | MIC Enterococccus faecium (GC 4557) (Enterococcus sp.): 8 µg/mL (≈ 5.76 µM) | MIC Enterococcus faecalis (GC 2242) (Enterococcus sp.): 8 µg/mL (≈ 5.76 µM) | MIC Staphylococcus aureus (ATCC 29213) (Staphylococcus sp.): 8 µg/mL (≈ 5.76 µM) | MIC Staphylococcus aureus (ATCC 29213) (Staphylococcus sp.; [1]): 8 µg/mL (≈ 5.76 µM) | MIC Staphylococcus aureus (GC 1131) (Staphylococcus sp.): 8 µg/mL (≈ 5.76 µM) | MIC Staphylococcus aureus (GC 1131) (Staphylococcus sp.; [1]): 8 µg/mL (≈ 5.76 µM) | MIC Staphylococcus aureus (GC 3051) (Staphylococcus sp.): 8 µg/mL (≈ 5.76 µM) | MIC Staphylococcus aureus (GC 3051) (Staphylococcus sp.; [1]): 8 µg/mL (≈ 5.76 µM) | MIC Staphylococcus aureus (GC 3053) (Staphylococcus sp.): 8 µg/mL (≈ 5.76 µM) | MIC Staphylococcus aureus (GC 3053) (Staphylococcus sp.; [1]): 8 µg/mL (≈ 5.76 µM) | MIC Staphylococcus aureus (GC 4541) (Staphylococcus sp.): 4 µg/mL (≈ 2.88 µM) | MIC Staphylococcus aureus (GC 4541) (Staphylococcus sp.; [1]): 4 µg/mL (≈ 2.88 µM) | MIC Staphylococcus aureus (GC 4542) (Staphylococcus sp.): 4 µg/mL (≈ 2.88 µM) | MIC Staphylococcus aureus (GC 4542) (Staphylococcus sp.; [1]): 4 µg/mL (≈ 2.88 µM) | MIC Staphylococcus aureus-SMITH (GC 4543) (Staphylococcus sp.; 18 hours at 35° C.): 4 µg/mL (≈ 2.88 µM) | MIC Staphylococcus aureus-SMITH (GC 4543) (Staphylococcus sp.; [1]): 4 µg/mL (≈ 2.88 µM) | MIC Staphylococcus aureus (GC 4544) (Staphylococcus sp.): 8 µg/mL (≈ 5.76 µM) | MIC Staphylococcus aureus (GC 4544) (Staphylococcus sp.; [1]): 8 µg/mL (≈ 5.76 µM) | MIC Staphylococcus aureus (GC 4545) (Staphylococcus sp.): 8 µg/mL (≈ 5.76 µM) | MIC Staphylococcus aureus (GC 4545) (Staphylococcus sp.; [1]): 8 µg/mL (≈ 5.76 µM) | MIC Coagulase Negative Staphylococcus (GC 4547) (Staphylococcus sp.): 8 µg/mL (≈ 5.76 µM) | MIC Coagulase Negative Staphylococcus (GC 4547) (Staphylococcus sp.; [1]): 8 µg/mL (≈ 5.76 µM) | MIC Coagulase Negative Staphylococcus (GC 4548) (Staphylococcus sp.): 4 µg/mL (≈ 2.88 µM) | MIC Coagulase Negative Staphylococcus (GC 4548) (Staphylococcus sp.; [1]): 4 µg/mL (≈ 2.88 µM) | MIC Coagulase Negative Staphylococcus (GC 4549) (Staphylococcus sp.): 4 µg/mL (≈ 2.88 µM) | MIC Coagulase Negative Staphylococcus (GC 4549) (Staphylococcus sp.; [1]): 4 µg/mL (≈ 2.88 µM) | MIC Coagulase Negative Staphylococcus (GC 4551) (Staphylococcus sp.): 8 µg/mL (≈ 5.76 µM) | MIC Coagulase Negative Staphylococcus (GC 4551) (Staphylococcus sp.; [1]): 8 µg/mL (≈ 5.76 µM) | MIC Coagulase Negative Staphylococcus (GC 6257) (Staphylococcus sp.): 4 µg/mL (≈ 2.88 µM) | MIC Coagulase Negative Staphylococcus (GC 6257) (Staphylococcus sp.; [1]): 4 µg/mL (≈ 2.88 µM) | MIC Streptococcus agalactiae (GC 4564) (Streptococcus sp.): 2 µg/mL (≈ 1.44 µM) | MIC Streptococcus pneumoniae (GC 1894) (Streptococcus sp.): 1 µg/mL (≈ 0.72 µM) | MIC Streptococcus pneumoniae (GC 4565) (Streptococcus sp.): 2 µg/mL (≈ 1.44 µM) | MIC Streptococcus pneumonine (ATCC 6301) (Streptococcus sp.): 1 µg/mL (≈ 0.72 µM) | MIC Streptococcus pyogenes (GC 4563) (Streptococcus sp.): 0.5 µg/mL (≈ 0.36 µM)
SMILES: CC(C)=CCCC1OCC2OC(OC3C(CO)OC(Oc4ccc(CC5NC(=O)C(C(C)c6ccccc6)NC(=O)CNC(=O)C(CO)NC(=O)C(C(O)C6CNC(=N)N6C6OC(CO)C(O)C(O)C6O)NC(=O)C(C(O)C6CNC(=N)N6)NC5=O)cc4)C(O)C3O)C(O)C(O)C2O1 (stereo not drawn) [Example 123, Cyclo[glycyl-β-methylphenylalanyl-O-[4-O-[4,6-O-[5-methylhex-4-en-1-ylidene)hexopyranosyl]hexopyranosyl]tyrosyl-3-[2-iminoimidazolidin-4-yl)seryl-3-(3-hexopyranosyl-2-iminoimidazolidin-4-yl)serylseryl]]
MIC Staphylococcus haemolyticus (GC 4546) (Staphylococcus sp.): 8 µg/mL (≈ 5.76 µM) | MIC Staphylococcus haemolyticus (GC 4546) (Staphylococcus sp.; [1]): 8 µg/mL (≈ 5.76 µM)
